Measured values taken from patent US8602215B2, “Methods for reducing the risk of an adverse dronedarone/beta-blockers interaction in a patient suffering from atrial fibrillation” (Sanofi, priority 2010, dated 2013).
Counter-ions that a name gives are not always drawn. Like-named read-outs stand apart in the source and are kept apart here.

Experiments:
[1] = human, in vivo
[2] = system: patients with atrial fibrillation or atrial flutter; assay: ATHENA clinical study, patients with beta-blockers baseline medication; assay type: in vivo
Procedure: The relative risk (RR) was estimated using Cox's […] regression model.
The relative risk (RR) is the ratio of the rates of occurrence of a hospitalization or of a death among the patients on dronedarone, relative to the patients on placebo.
The percentage reduction x of a given event (hospitalization, death, cardiovascular death, etc.) is calculated in the following way: x=1−relative risk. Results Relating to the Prevention of Cardiovascular Hospitalization or Death

[3] = molecular target: T1, CYP2D6 (Homo sapiens, UniProt P10635); assay: CYP2D6 inhibition in vivo, from metoprolol interaction (Example 1); parameters: species or system human (CYP2D6 extensive metabolizer subjects); conditions: dronedarone 400 mg BID, metoprolol 200 mg OD as substrate
T1 construct: endogenous in cells; host or cells: healthy human volunteers in vivo (endogenous enzyme, CYP2D6 extensive metabolizers)
T1 sequence (P10635 whole entry): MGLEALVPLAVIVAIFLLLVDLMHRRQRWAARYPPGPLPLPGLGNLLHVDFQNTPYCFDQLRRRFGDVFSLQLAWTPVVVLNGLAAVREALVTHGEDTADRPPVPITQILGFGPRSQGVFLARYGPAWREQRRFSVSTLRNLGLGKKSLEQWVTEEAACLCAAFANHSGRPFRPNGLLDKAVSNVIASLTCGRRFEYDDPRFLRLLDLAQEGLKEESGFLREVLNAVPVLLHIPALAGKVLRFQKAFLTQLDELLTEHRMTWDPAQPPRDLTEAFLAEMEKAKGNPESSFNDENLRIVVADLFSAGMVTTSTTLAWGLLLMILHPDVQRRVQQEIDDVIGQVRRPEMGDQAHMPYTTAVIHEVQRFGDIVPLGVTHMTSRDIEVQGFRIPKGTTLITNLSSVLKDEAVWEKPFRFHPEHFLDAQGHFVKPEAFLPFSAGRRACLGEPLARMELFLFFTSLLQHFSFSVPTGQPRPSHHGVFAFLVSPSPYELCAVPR
Procedure: (§1) All treatments were administered in fed conditions.
The interaction ratio is lower than the existing 3-(Cmax) to 6-fold (AUC) difference in metoprolol exposure between poor and extensive CYP2D6 metabolizers.

[4] = system: healthy male subjects; assay: Propranolol/dronedarone interaction study: pharmacodynamics, electrocardiogram and vital signs at rest and during sub-maximal exercise (Example 2); assay type: in vivo, human (healthy male subjects)
Procedure: as §1
Pharmacodynamics: Resting vital signs were summarized by the synthetic parameter AUC0-8 and analyzed for “treatment effects and chronological (“time”) effects using repeated measures analysis of variance. Exercise vital signs were analyzed in a similar manner; the electrocardiogram exercise data were not formally analyzed and presented using descriptive statistics.

[5] = Metoprolol/dronedarone interaction study: plasma pharmacokinetics of metoprolol (Example 1); conditions: dronedarone 400 mg BID + metoprolol 200 mg OD; CYP2D6 extensive metabolizer subjects
[6] = system: healthy male caucasian subjects; assay: Metoprolol/dronedarone interaction study: pharmacodynamics, myocardial contractility (Example 1); assay type: in vivo, human (healthy male caucasian subjects); conditions: dronedarone 800 mg BID added on top of metoprolol 200 mg OD; p=0.0002
Procedure: as §1
The pharmacodynamic analyses were based on the change in Day 5 and Day 13 measurements, using a one-way analysis of variance (ANOVA) model with term for dose, for both primary and secondary endpoints; estimates and 95% confidence intervals (CI) of the difference in mean CHGDay13-5 between dronedarone dose groups and the placebo group were derived within the ANOVA framework. As the sample size calculation was based on the comparison of the highest dronedarone dose versus placebo, pairwise comparison were performed without adjustment of the overall treatment first type error rate. Safety evaluation was based upon a review of individual values and descriptive statistics (listings, summary tables, graphics).

[7] = clinical; conditions: male, human, in vivo
[8] = human, in vivo; remark: listed apart in the source
[9] = existing difference, quoted for comparison; cited from earlier work
[10] = 1628 patients with beta-blockers baseline medication, placebo 673 of 1641
[11] = versus placebo, Cox model, beta-blockers baseline medication
[12] = versus placebo, beta-blockers baseline medication

CCCCNCCCOc1ccc(C(=O)c2c(CCCC)oc3ccc(NS(C)(=O)=O)cc23)cc1 [SR35021]
AUC0-24 [1]: 768.6 (278.4) ng · h/ml | Cmax [1]: 85.9 (28.8) ng/ml | tmax [1]: 5.13 (0.72) h

CCCCc1oc2ccc(NS(C)(=O)=O)cc2c1C(=O)c1ccc(OCCCN(CCCC)CCCC)cc1 [dronedarone hydrochloride]
death due to stroke, events reported ([2]; 1628 patients with beta-blockers baseline medication, placebo 11 of 1641): 10 events | sudden cardiac death, events reported ([2]; 1628 patients with beta-blockers baseline medication, placebo 25 of 1641): 9 events | hospitalization for congestive heart failure (CHF), events reported ([2]; 1628 patients with beta-blockers baseline medication, placebo 96 of 1641): 85 events | cardiovascular hospitalization or death, events reported [2, 10]: 553 events | death, events reported [2, 10]: 553 events | relative risk of cardiovascular hospitalization or death [2, 11]: 0.777 | relative risk of death [2, 11]: 0.777 | relative risk of death due to stroke [2, 11]: 0.909 | relative risk of hospitalization for CHF [2, 11]: 0.888 | relative risk of sudden cardiac death [2, 11]: 0.362 | decrease of CHF [2, 12]: 12% | decrease of cardiovascular hospitalization or death [2, 12]: 23% | decrease of death [2, 12]: 23% | decrease of death due to stroke [2, 12]: 10% | decrease of sudden cardiac death [2, 12]: 64%

CCCCc1oc2ccc(NS(C)(=O)=O)cc2c1C(=O)c1ccc(OCCCN(CCCC)CCCC)cc1 [dronedarone, 2-n-Butyl-3-[4-(3-di-n-butylaminopropoxy)benzoyl]-5-methylsulphonamidobenzofuran]
inhibition of CYP2D6 in vivo [3]: weak inhibitor | increase of steady-state propranolol (80 mg OD) exposure ([1]; male, 7 days): 1.2-1.3 fold | risk of bradycardia ([2]; patients using both dronedarone and beta-blockers except sotalol): no clinically significant increase | Resting diastolic blood pressure, change ([4]; single dose): −3% | Resting heart rate, change ([4]; single dose): 2% | Resting systolic blood pressure, change ([4]; single dose): −5% | diastolic blood pressure during sub-maximal exercise, change from baseline ([4]; single dose): −2% | heart rate during sub-maximal exercise, change from baseline ([4]; single dose): −3% | systolic blood pressure during sub-maximal exercise, change from baseline ([4]; single dose): −2% | PQ interval, change from baseline ([4]; single oral administration): increase | T-wave amplitude, change from baseline ([4]; single oral administration): increase | effect on alpha hydroxymetoprolol exposures [5]: without significant effect | reduction in Vcfmean (myocardial contractility) [6]: -0.28 s⁻¹ | AUC(0-t) ([7]; AUC0-24): 983 ng·h/mL | Cmax ([7]; Cmax): 140 ng/mL | tmax ([7]; tmax): 3.63 h

COCCc1ccc(OCC(O)CNC(C)C)cc1 (stereo not shown) [metoprolol]
metoprolol Cmax and AUC0-24h after 8 days of treatment [8]: significantly higher | AUC0-24 ([8]; male): 1541 (1563) ng · h/mL | AUC0-24 ratio estimate (day 13/day 5) and 90% CI ([8]; male): 1.29 [1.08-1.55] | Cmax ([8]; male): 100.6 (86.4) ng/mL | Cmax ratio estimate (day 13/day 5) and 90% CI ([8]; male): 1.34 [1.08-1.66] | increase in AUC0-24 ([8]; male): 1.6 fold | increase in Cmax ([8]; male): 1.8 fold | tmax ([8]; male): 4.0 h | difference in metoprolol exposure (AUC) between poor and extensive CYP2D6 metabolizers [9]: 6 fold | difference in metoprolol exposure (Cmax) between poor and extensive CYP2D6 metabolizers [9]: 3 fold

CC(C)NCC(O)COc1cccc2ccccc12 (stereo not shown) [propranolol]
AUC0-12 [1]: 318.75 (178.62) ng · h/ml | AUClast [1]: 360.85 (210.30) ng · h/ml | Cmax [1]: 59.79 (33.77) ng/ml | tmax [1]: 2.19 (0.66) h | magnitude of the PR prolongation ([4]; after repeated administration, p<0.001): 3.9% | magnitude of the T-wave increase ([4]; after repeated administration, p=0.001): 28.3% | reduction of HR ([4]; at steady state): −8.9% | mean change from baseline in QT ([4]; based on AUC0-8 h, at steady state): 3.6% | mean change from baseline in QTc ([4]; based on AUC0-8 h, at steady state, p<0.001): −1.9% | QT interval, change from baseline (resting electrocardiogram) ([4]; repeated daily dosing): 4% | QTc interval, change from baseline (resting electrocardiogram) ([4]; repeated daily dosing): −2% | T-wave amplitude, change from baseline (resting electrocardiogram) ([4]; repeated daily dosing): 28% | PQ interval, change from baseline (resting electrocardiogram) ([4]; repeated once daily dosing): 4% | Resting electrocardiogram heart rate, change compared to baseline ([4]; repeated once daily dosing): −9% | Resting diastolic blood pressure, change ([4]; repeated oral administration): −10% | Resting heart rate, change ([4]; repeated oral administration): −8% | Resting systolic blood pressure, change ([4]; repeated oral administration): −5% | diastolic blood pressure during sub-maximal exercise, change from baseline ([4]; repeated oral administration): −2% | heart rate during sub-maximal exercise, change from baseline ([4]; repeated oral administration): −16% | systolic blood pressure during sub-maximal exercise, change from baseline ([4]; repeated oral administration): −12% | Resting diastolic blood pressure, change ([4]; single dose): −4% | Resting heart rate, change ([4]; single dose): −10% | Resting systolic blood pressure, change ([4]; single dose): −3% | diastolic blood pressure during sub-maximal exercise, change from baseline ([4]; single dose): 2% | heart rate during sub-maximal exercise, change from baseline ([4]; single dose): −17% | systolic blood pressure during sub-maximal exercise, change from baseline ([4]; single dose): −13%
